“And” between values parts separate entries of the source, which are not always exact repeats. Identical values can stand only once. Inconclusive results and toxic doses are left out. No stated cut-off is given here; in the data, active means T/C of 150% or more; inactive means T/C below 125%.
Tested on: L1210 leukemia ip in BDF1 mice, survival T/C
Assay: NCI In Vivo Anticancer Drug Screen. Data for tumor model L1210 Leukemia (intraperitoneal) in B6D2F1 (BDF1) mice
Conditions: endpoint: mean survival time, higher = longer survival
In short: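 Antitumor effect is assessed in tumor-bearing animals. Survival in the compound arm is compared with a vehicle-dosed control arm and expressed as their quotient.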

[1] = dose: 100.0 mg/kg/injection, schedule: Q04DX003 (ip), vehicle: saline with Tween-80
[2] = dose: 100.0 mg/kg/injection, schedule: Q04DX002 (ip), vehicle: saline with Tween-80
[3] = dose: 200.0 mg/kg/injection, schedule: Q04DX002 (ip), vehicle: saline with Tween-80
[4] = dose: 200.0 mg/kg/injection, schedule: Q04DX003 (ip), vehicle: saline with Tween-80
[5] = dose: 400.0 mg/kg/injection, schedule: Q04DX003 (ip), vehicle: saline with Tween-80

Measured: T/C

COc1cc(C[C@H]2c3cc(OC)c(OC)cc3CCN2C)c(Oc2cc3c(cc2OC)-c2c(OC)c(OC)cc4c2[C@H](C3)N(C)CC4)cc1OC
inactive: dose: 12.0 mg/kg/injection, schedule: Q01DX005 (ip), vehicle: other 110 % of control | dose: 12.0 mg/kg/injection, schedule: Q01DX009 (ip), vehicle: other 97 % of control | dose: 18.0 mg/kg/injection, schedule: Q04DX003 (ip), vehicle: other 107 % of control | dose: 24.0 mg/kg/injection, schedule: Q01DX005 (ip), vehicle: other 106 % of control | dose: 24.0 mg/kg/injection, schedule: Q01DX009 (ip), vehicle: other 105 % of control | dose: 25.0 mg/kg/injection, schedule: Q01DX009 (ip), vehicle: clinical formulation 103 % of control | dose: 27.0 mg/kg/injection, schedule: Q08DX002 (ip), vehicle: other 103 % of control | dose: 36.0 mg/kg/injection, schedule: Q04DX003 (ip), vehicle: other 103 % of control | dose: 48.0 mg/kg/injection, schedule: Q01DX005 (ip), vehicle: other 110 % of control | dose: 48.0 mg/kg/injection, schedule: Q01DX009 (ip), vehicle: other 108 % of control | dose: 50.0 mg/kg/injection, schedule: Q01DX009 (ip), vehicle: clinical formulation 100 % of control | dose: 54.0 mg/kg/injection, schedule: Q08DX002 (ip), vehicle: other 106 % of control | dose: 72.0 mg/kg/injection, schedule: Q04DX003 (ip), vehicle: other 108 % of control | dose: 80.0 mg/kg/injection, schedule: Q01DX015 (ip), vehicle: carboxymethylcellulose (CMC) 88 % of control | dose: 96.0 mg/kg/injection, schedule: Q01DX005 (ip), vehicle: other 108 % of control | dose: 96.0 mg/kg/injection, schedule: Q01DX009 (ip), vehicle: other 105 % of control | dose: 100.0 mg/kg/injection, schedule: Q01DX009 (ip), vehicle: clinical formulation 102 % of control | dose: 100.0 mg/kg/injection, schedule: Q04DX002 (ip), vehicle: Klucel (hydroxypropylcellulose) (HPC) 104 % of control | dose: 108.0 mg/kg/injection, schedule: Q08DX002 (ip), vehicle: other 102 % of control | dose: 144.0 mg/kg/injection, schedule: Q04DX003 (ip), vehicle: other 103 % of control | dose: 160.0 mg/kg/injection, schedule: Q01DX015 (ip), vehicle: carboxymethylcellulose (CMC) 93 % of control | dose: 192.0 mg/kg/injection, schedule: Q01DX005 (ip), vehicle: other 105 % of control | dose: 192.0 mg/kg/injection, schedule: Q01DX009 (ip), vehicle: other 101 % of control | dose: 200.0 mg/kg/injection, schedule: Q04DX002 (ip), vehicle: Klucel (hydroxypropylcellulose) (HPC) 86 % of control | dose: 216.0 mg/kg/injection, schedule: Q08DX002 (ip), vehicle: other 95 % of control | dose: 288.0 mg/kg/injection, schedule: Q04DX003 (ip), vehicle: other 97 % of control | dose: 400.0 mg/kg/injection, schedule: Q04DX002 (ip), vehicle: Klucel (hydroxypropylcellulose) (HPC) 101 % of control

O=C(O)c1ccc(C2CC2)cc1
inactive: dose: 100.0 mg/kg/injection, schedule: Q01DX001 (ip), vehicle: other 103 % of control | dose: 100.0 mg/kg/injection, schedule: Q04DX003 (ip), vehicle: other 103 % of control | dose: 200.0 mg/kg/injection, schedule: Q01DX001 (ip), vehicle: other 108 % of control | dose: 200.0 mg/kg/injection, schedule: Q04DX003 (ip), vehicle: other 111 % of control | dose: 400.0 mg/kg/injection, schedule: Q01DX001 (ip), vehicle: other 95 % of control | dose: 400.0 mg/kg/injection, schedule: Q04DX003 (ip), vehicle: other 103 % of control

COC(=O)C(C)CN1CCCCCC1 (stereo unspecified)
inactive: dose: 100.0 mg/kg/injection, schedule: Q01DX009 (ip), vehicle: saline 97 % of control | dose: 100.0 mg/kg/injection, schedule: Q04DX003 (ip), vehicle: saline 100 % of control | dose: 200.0 mg/kg/injection, schedule: Q01DX009 (ip), vehicle: saline 104 % of control | dose: 200.0 mg/kg/injection, schedule: Q04DX003 (ip), vehicle: saline 104 % of control | dose: 400.0 mg/kg/injection, schedule: Q01DX009 (ip), vehicle: saline 95 % of control | dose: 400.0 mg/kg/injection, schedule: Q04DX003 (ip), vehicle: saline 102 % of control

COc1cccc(OC)c1OCCCN1CCOCC1
inactive: dose: 25.0 mg/kg/injection, schedule: Q04DX003 (ip), vehicle: saline with Tween-80 99 % of control | dose: 50.0 mg/kg/injection, schedule: Q04DX003 (ip), vehicle: saline with Tween-80 100 % of control | [1] 94 % of control

Cc1ccc([N+](=O)[O-])c(P(=O)(O)O)c1
inactive: [1] 100 % of control

CCOCCOCCOC(C)Oc1ccc(C(=O)OCC)cc1 (stereo unspecified)
inactive: [2] 103 % of control | [3] 100 % of control | dose: 400.0 mg/kg/injection, schedule: Q04DX002 (ip), vehicle: saline with Tween-80 107 % of control

O=C/C(Br)=C(\Br)C(=O)O
inactive: dose: 12.5 mg/kg/injection, schedule: Q01DX001 (ip), vehicle: carboxymethylcellulose (CMC) 93 % of control | dose: 12.5 mg/kg/injection, schedule: Q01DX009 (ip), vehicle: carboxymethylcellulose (CMC) 95 % of control | dose: 12.5 mg/kg/injection, schedule: Q04DX002 (ip), vehicle: carboxymethylcellulose (CMC) 97 % of control | dose: 12.5 mg/kg/injection, schedule: Q04DX003 (ip), vehicle: carboxymethylcellulose (CMC) 97 % of control | dose: 25.0 mg/kg/injection, schedule: Q01DX001 (ip), vehicle: carboxymethylcellulose (CMC) 93 % of control | dose: 25.0 mg/kg/injection, schedule: Q01DX009 (ip), vehicle: carboxymethylcellulose (CMC) 98 % of control and 92 % of control | dose: 25.0 mg/kg/injection, schedule: Q04DX002 (ip), vehicle: carboxymethylcellulose (CMC) 93 % of control and 98 % of control | dose: 25.0 mg/kg/injection, schedule: Q04DX003 (ip), vehicle: carboxymethylcellulose (CMC) 103 % of control | dose: 50.0 mg/kg/injection, schedule: Q01DX001 (ip), vehicle: carboxymethylcellulose (CMC) 106 % of control | dose: 50.0 mg/kg/injection, schedule: Q01DX009 (ip), vehicle: carboxymethylcellulose (CMC) 96 % of control | dose: 50.0 mg/kg/injection, schedule: Q04DX002 (ip), vehicle: carboxymethylcellulose (CMC) 90 % of control

CCCC(=O)CCCCNC(=O)c1ccccc1
inactive: [2] 99 % of control | [3] 89 % of control

CCc1oc(N)nc1-c1ccccc1
inactive: [1] 105 % of control | [4] 101 % of control | [5] 97 % of control

NCc1ccc(NC(=O)c2ccc(C(=O)Nc3ccc(CN)cc3)cc2)cc1
inactive: dose: 15.0 mg/kg/injection, schedule: Q01DX Z (ip), vehicle: water 97 % of control | dose: 20.0 mg/kg/injection, schedule: Q01DX Z (ip), vehicle: water 102 % of control | dose: 30.0 mg/kg/injection, schedule: Q01DX Z (ip), vehicle: water 96 % of control | dose: 40.0 mg/kg/injection, schedule: Q01DX Z (ip), vehicle: water 102 % of control

O=C(/C=C/c1ccc(Br)cc1)c1ccc(Cl)cc1
inactive: dose: 100.0 mg/kg/injection, schedule: Q01DX009 (ip), vehicle: saline with Tween-80 96 % of control | [1] 96 % of control | dose: 200.0 mg/kg/injection, schedule: Q01DX009 (ip), vehicle: saline with Tween-80 96 % of control | [4] 91 % of control | dose: 400.0 mg/kg/injection, schedule: Q01DX009 (ip), vehicle: saline with Tween-80 94 % of control | [5] 92 % of control

c1ccc2ncc(-c3ccc4ccccc4n3)cc2c1
inactive: dose: 100.0 mg/kg/injection, schedule: Q01DX001 (ip), vehicle: Klucel (hydroxypropylcellulose) (HPC) 100 % of control | dose: 100.0 mg/kg/injection, schedule: Q01DX001 (ip), vehicle: saline 107 % of control | dose: 100.0 mg/kg/injection, schedule: Q01DX009 (ip), vehicle: Klucel (hydroxypropylcellulose) (HPC) 97 % of control and 116 % of control | dose: 200.0 mg/kg/injection, schedule: Q01DX001 (ip), vehicle: Klucel (hydroxypropylcellulose) (HPC) 94 % of control | dose: 200.0 mg/kg/injection, schedule: Q01DX001 (ip), vehicle: saline 96 % of control | dose: 200.0 mg/kg/injection, schedule: Q01DX009 (ip), vehicle: Klucel (hydroxypropylcellulose) (HPC) 95 % of control and 101 % of control | dose: 400.0 mg/kg/injection, schedule: Q01DX001 (ip), vehicle: Klucel (hydroxypropylcellulose) (HPC) 100 % of control | dose: 400.0 mg/kg/injection, schedule: Q01DX001 (ip), vehicle: saline 96 % of control | dose: 400.0 mg/kg/injection, schedule: Q01DX009 (ip), vehicle: Klucel (hydroxypropylcellulose) (HPC) 94 % of control and 100 % of control

— PubChem BioAssay AID248 (DTP/NCI, 2004)
